pKi: −log10 of the molar value.
Tests used:
Assay in all cases: Esterase Activity Assay
Details in all cases: pH 7.4
Carbonic anhydrase 1 = Carbonic anhydrase 1 (Homo sapiens, UniProt P00915)
Carbonic anhydrase 2 = Carbonic anhydrase 2 (Homo sapiens, UniProt P00918)
Carbonic anhydrase 3 = biological target: T1, Carbonic anhydrase 3 (Bos taurus, UniProt Q3SZX4)
T1 sequence (Q3SZX4 whole entry): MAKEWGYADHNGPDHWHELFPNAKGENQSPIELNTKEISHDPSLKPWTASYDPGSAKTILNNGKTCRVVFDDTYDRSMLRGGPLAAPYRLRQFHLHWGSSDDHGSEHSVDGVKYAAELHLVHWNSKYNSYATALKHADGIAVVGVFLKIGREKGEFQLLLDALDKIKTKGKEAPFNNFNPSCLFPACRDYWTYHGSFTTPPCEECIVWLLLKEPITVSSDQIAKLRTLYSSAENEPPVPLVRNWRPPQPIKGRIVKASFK

Carbonic anhydrase 4 = Carbonic anhydrase 4 (Homo sapiens, UniProt P22748)
Carbonic anhydrase 6 = Carbonic anhydrase 6 (Homo sapiens, UniProt P23280)
Carbonic anhydrase 6, sequence (P23280 whole entry): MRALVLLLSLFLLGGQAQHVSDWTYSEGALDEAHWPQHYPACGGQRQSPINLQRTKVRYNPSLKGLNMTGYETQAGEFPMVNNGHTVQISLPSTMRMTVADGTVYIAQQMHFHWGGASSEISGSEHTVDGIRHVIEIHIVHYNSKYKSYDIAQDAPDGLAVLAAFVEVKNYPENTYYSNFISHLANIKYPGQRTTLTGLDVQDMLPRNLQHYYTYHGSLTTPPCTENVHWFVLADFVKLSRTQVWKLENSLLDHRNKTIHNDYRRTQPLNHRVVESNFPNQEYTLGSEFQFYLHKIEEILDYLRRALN

Carbonic anhydrase 4, sequence (P22748 whole entry): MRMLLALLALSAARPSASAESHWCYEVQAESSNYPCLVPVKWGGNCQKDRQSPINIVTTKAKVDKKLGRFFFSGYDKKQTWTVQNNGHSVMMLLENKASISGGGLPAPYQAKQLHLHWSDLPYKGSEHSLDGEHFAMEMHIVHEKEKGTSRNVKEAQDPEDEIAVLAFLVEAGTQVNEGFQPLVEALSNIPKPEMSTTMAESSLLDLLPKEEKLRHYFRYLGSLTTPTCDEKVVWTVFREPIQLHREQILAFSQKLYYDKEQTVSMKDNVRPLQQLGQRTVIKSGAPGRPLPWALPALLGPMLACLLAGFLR
Carbonic anhydrase 1, sequence (P00915 whole entry): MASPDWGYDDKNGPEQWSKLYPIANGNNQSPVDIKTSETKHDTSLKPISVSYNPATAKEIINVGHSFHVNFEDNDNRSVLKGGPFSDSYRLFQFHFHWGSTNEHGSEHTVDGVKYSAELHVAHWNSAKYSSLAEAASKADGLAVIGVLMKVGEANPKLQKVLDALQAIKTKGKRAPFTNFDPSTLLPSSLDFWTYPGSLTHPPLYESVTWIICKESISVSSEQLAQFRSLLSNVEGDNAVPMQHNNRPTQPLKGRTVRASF

Oc1cc(O)c2c(c1)O[C@H](c1ccc(O)c(O)c1)[C@H](O)C2
pKi (Carbonic anhydrase 1): 5.63 | pKi (Carbonic anhydrase 2): 5.91 | pKi (Carbonic anhydrase 3): 5.05 | pKi (Carbonic anhydrase 4): 5.40 | pKi (Carbonic anhydrase 6): 5.36

Oc1cccc(O)c1
pKi (Carbonic anhydrase 3): 3.71

Oc1ccccc1O [1,2-Dihydroxybenzene, XI]
pKi (Carbonic anhydrase 3): 5.24

O=c1c(O)c(-c2ccc(O)c(O)c2)oc2cc(O)cc(O)c12 [2-(3,4-dihydroxyphenyl)-3,5,7-trihydroxy-chromone;hydrate]
pKi (Carbonic anhydrase 3): 5.43

Oc1cc(O)c2c(c1)O[C@H](c1ccc(O)c(O)c1)[C@@H](O)C2 [(+)-Catechin]
pKi (Carbonic anhydrase 3): 5.01

CC(C)(O)[C@@H]1CC[C@](C)([C@H]2[C@@H](O)C[C@@]3(C)C4C[C@H](O[C@@H]5OC(CO)[C@@H](O)C(O)[C@@H]5O)C5C(C)(C)[C@@H](O[C@@H]6OC[C@@H](O)C(O)[C@@H]6O[C@@H]6OC[C@H](O)C(O)[C@@H]6O)CC[C@@]56C[C@@]46CC[C@]23C)O1 (stereo partly drawn) [α-CA inhibitor, 7]
pKi (Carbonic anhydrase 1): 6.03 | pKi (Carbonic anhydrase 2): 6.33 | pKi (Carbonic anhydrase 3): 5.86 | pKi (Carbonic anhydrase 4): 5.62 | pKi (Carbonic anhydrase 6): 5.33

CC(C)(O)[C@@H]1CC[C@](C)([C@H]2[C@@H](O)C[C@@]3(C)C4C[C@H](O[C@@H]5OC(CO)[C@@H](O)C(O)[C@@H]5O)C5C(C)(C)[C@@H](O[C@@H]6OC[C@@H](O)C(O)[C@@H]6O)CC[C@@]56C[C@@]46CC[C@]23C)O1 (stereo partly drawn) [α-CA inhibitor, 8]
pKi (Carbonic anhydrase 1): 5.83 | pKi (Carbonic anhydrase 2): 6.01 | pKi (Carbonic anhydrase 3): 5.71 | pKi (Carbonic anhydrase 4): 5.56 | pKi (Carbonic anhydrase 6): 5.16

CC(C)(O)[C@@H]1CC[C@](C)([C@H]2[C@@H](O)C[C@@]3(C)C4C[C@H](O[C@@H]5OC[C@@H](O)C(O)[C@@H]5O)C5C(C)(C)[C@@H](O[C@@H]6OC[C@@H](O)C(O)[C@@H]6O)CC[C@@]56C[C@@]46CC[C@]23C)O1 (stereo partly drawn) [α-CA inhibitor, 10]
pKi (Carbonic anhydrase 1): 5.66 | pKi (Carbonic anhydrase 2): 5.89 | pKi (Carbonic anhydrase 3): 5.60 | pKi (Carbonic anhydrase 4): 5.36 | pKi (Carbonic anhydrase 6): 5.01

Source: BindingDB's records for doi:10.3109/14756366.2011.651464 (Ege University, 2013)
